Measured values taken from US8765783B2, “Pharmaceutical composition for treatment of disease due to vascular constriction or vasodilation” (Ono Pharmaceuticals Co., Ltd., priority 2002, dated 2014).
Entries after “also recorded” stand apart in the source; their conditions may differ.

How the values were obtained:
[1] = test system: canine removed renal artery; assay: Vasoconstrictor action of canine renal artery by S1P; design: species or system canine (beagle); conditions: for constriction of canine renal arteries: serotonin 1 μM (positive control), S1P 10 μM; for inhibitory effect on vasoconstrictive action of canine renal arteries by S1P: 10 μM test compound added 40 minutes after S1P
Text: (§1) The removed renal arteries of euthanized male beagle (12 months old) was immersed in Krebs-Henseleit solution [112 mmol/L sodium chloride, 5.9 mmol/L potassium chloride, 2.0 mmol/L calcium chloride, 1.2 mmol/L magnesium chloride, 1.2 mmol/L monobasic sodium phosphate, 25.0 mmol/L sodium hydrogen carbonate NaHCO3, 11.5 mmol/L glucose, saturated by mixed gas (95% O2+5% CO2)]. They were divided by 3-4 mm with ophthalmic scissors and made as ringed samples. Made ringed tissues were hung in magnus tube (volume: 10 mL) filled with Krebs-Henseleit solution [37±1° C., aerated with mixed gas (95% O2+5% CO2)] using a hook. Next, they were loaded with 1 g resting tension stabilized for about 60 minutes, then constrictive movement was recorded on a recorder through strain compression amplifier (AP-601G, Nihon Kohden) from Force displacement transducer (FD pickup TB-611T). Serotonin (1 μM) is used as positive control for constriction action. After that, S1P (10 μM) adding, vasoconstrictive action was measured. As a result, serotonin and S1P constricted renal arteries.

SD rat = assay: Increase of rat blood pressure by S1P; assay type: in vivo; conditions: anesthetized male SD rat
Method: Male SD Rat (8 weeks old-10 weeks old) was anesthetized by injection of pentobarbital sodium (50 mg/mL/kg), after midline incision in the cervical region, trachea was exposed by exfoliation of tracheal muscle layer and cannula made of polyethylene was inserted into trachea. Next, catheter made of polyethylene was inserted into the common carotid artery and the common jugular vein. Catheter inserted into the common carotid artery was connected to the piezotransducer and the blood pressure was recorded on the recorder through strain compression amplifier. After the above mentioned operation was finished, in the case of the spinal chord was broken, the spinal chord was broken by insertion of stainless pole into the spinal chord cavity. After the spinal chord was broken, tracheal cannula was immediately connected into the artificial breathing device for small animals and artificial ventilation was performed under the conditions of a ventilatory volume 6 mL/kg and velocity 60 times/min. After then, S1P was administered and we confirmed blood pressure was increased. […] As a result, the compound (3) inhibited the increase of blood pressure by S1P.

removed rat heart = assay: Removed rat heart (Langendorff heart); conditions: Langendorff heart mode; for contractive force of heart muscle: EDG-5 antagonist
Text: Rat (CD(SD)IGS, male, Charles River Japan Inc., 8 weeks old-10 weeks old, 300-450 g) was anesthetized by diethylether, opened the abdominal cavity, injected intravenously with heparin and then, exsanguinated to death. The heart was quickly removed by opening the chest cavity and the removed heart was immersed into cooled Krebs-Henseleit solution. The tissues were trimmed away under the cooling, aortic arches were inserted into the heart functional measuring equipment and fixed with sutures without leaking out. The rat heart function was measured using the heart functional measuring equipment (model IPH-W2, Labo-support). The equipment was used in the Langendorff Heart mode (non-working heart mode) and load was 68-70 mmHg. […] Catheter filled with physiological saline was inserted into the left ventricle, the catheter was connected to the piezotransducer (DX-100, Nihon Kohden) and the left ventricle pressure (LVP) was measured through strain compression amplifier (AP-601G, Nihon Kohden). Heart rate was calculated using LVP data with the heart rate measuring equipment (AT-601G, Nihon Kohden) and dLVP/dt was calculated with differential processor (EQ-641G, Nihon Kohden). Probes of electromagnetic flowmeter (model FF-020T, inside diameter 2 mm, Nihon Kohden) were set on the way to the passage of nutrient solution and the flow rate of nutrient solution (corresponding the blood flow rate of coronary artery) was measured using electromagnetic flowmeter (MFV-3100, Nihon Kohden). Administration of S1P and the compounds was performed by injection of dilution with nutrient solution into the passage of nutrient solution using infusion pump. The injection rate of drug solution was set as the flow rate of nutrient solution before starting of administration. […] Using the above mentioned model, effect of EDG-5 antagonist on heart function was examined. […] EDG-5 antagonist, the compound (1), the compound (2) and the compound (3) increased the flow rate of nutrient solution. In addition, they increased contractive force of heart muscle at the same time. […] It was considered that S1P had no direct chronotropic action and inotropic action on pacemaker and heart muscle and S1P had lowering effect on heart function by contracting the coronary blood vessels and ischemia.

[2] = test system: rat removed thoracic aorta; assay: Vasoconstrictive action of rat removed thoracic aorta by S1P or phenylephrine; conditions: for constriction of rat thoracic aorta: phenylephrine 10 μM (positive control), S1P 10 μM
Text: The removed thoracic aorta of euthanized SD rat (7-13 weeks old) was immersed in Krebs-Henseleit solution [112 mmol/L sodium chloride, 5.9 mmol/L potassium chloride, 2.0 mmol/L calcium chloride, 1.2 mmol/L magnesium chloride, 1.2 mmol/L monobasic sodium phosphate, 25.0 mmol/L sodium hydrogen carbonate NaHCO3, 11.5 mmol/L glucose, saturated by mixed gas (95% O2+5% CO2)]. They were divided by 3-4 mm with ophthalmic scissors and made as vortical samples. Made samples were hung in magnus tube (volume: 10 mL) filled with Krebs-Henseleit solution [37±1° C., aerated with mixed gas (95% O2+5% CO2)] using a hook. Next, they were loaded with 0.5 g resting tension stabilized for about 60 minutes, then constrictive movement was recorded on a recorder through strain compression amplifier (AP-601G, Nihon Kohden) from Force displacement transducer (FD pickup TB-611T). Sympathetic nerve stimulant, phenylephrine, (10 μM) is used as positive control for constriction action. After that, S1P (10 μM) adding, vasoconstrictive action was measured. As a result, phenylephrine and S1P constricted rat thoracic aorta.

[3] = test system: canine removed basilar artery; assay: Vasoconstrictor action of canine removed basilar artery by S1P; design: species or system canine (beagle); conditions: for constriction of canine basilar arteries: serotonin 1 μM (positive control), S1P 10 μM; for inhibitory effect on vasoconstrictive action of canine basilar artery by S1P: 10 μM test compound added 20 minutes after S1P (10 μM)
Text: as §1, with “basilar” for “renal”
As a result, test compounds having EDG-5 antagonist activity inhibited vasoconstrictive action by S1P.

human EDG-3 = target: T1, human EDG-3 (Homo sapiens, UniProt Q99500); assay: Antagonist evaluation for EDG-3, intracellular calcium ion; assay type: cell-based; conditions: cells overexpressing human EDG-3
T1 construct: expressed in transfected cells

human EDG-1 = target: T2, human EDG-1 (Homo sapiens, UniProt P21453); assay: Antagonist evaluation for EDG-1, intracellular calcium ion; assay type: cell-based; conditions: cells overexpressing human EDG-1
T2 construct: expressed in transfected cells

rabbit thoracic aorta = assay: Vasoconstrictive action of rabbit thoracic aorta by S1P
human EDG-5 = target: T3, human EDG-5 (Homo sapiens, UniProt O95136); assay: Antagonistic activity for EDG-5 by monitoring concentration change of intracellular calcium ion; assay type: cell-based; conditions: CHO cells overexpressing human EDG-5; S1P 100 nM
T3 construct: expressed in transfected cells; host or cells: CHO cells
Method: Chinese hamster ovary (CHO) cells overexpressed human EDG-5 gene were cultured in Ham's F12 medium (GIBCO BRL) containing 10% FBS (fetal bovine serum), penicillin/streptomycin, and blasticidin (5 μg/ml). Cultured cells were incubated in a Fura2 (5 μM)-AM solution [Ham's F12 medium containing FBS (10%), HEPES buffer (20 mM, pH7.4), and probenecid (2.5 mM)] at 37° C. for 60 minutes. Then they were washed once with a Hank's solution (2.5 mM) containing probenecid and immersed into the same solution. A plate was set on a fluorescent drug screening system, and the concentration of intracellular calcium ion was measured for 30 seconds with no stimulation. A solution of a compound (dimethyl sulfoxide (DMSO) solution of 1 nM to 10 μM at the final concentration) to be tested was added. After lapse of 5 minutes, S1P (final concentration: 100 nM) was added, the concentration of intracellular calcium ion before and after the addition was measured every 3 seconds (excitation wave length: 340 nm and 380 nm; fluorescent wave length: 500 nm). […]

[4] = test system: rabbit vasoconstrictive action by S1P; assay: Rabbit vasoconstrictive action by S1P
canine thoracic aorta = assay: Vasoconstrictive action of canine thoracic aorta by S1P
[5] = test system: removed rabbit portal vein/mesenteric vein; assay: Constriction of the removed rabbit vein by S1P
Method: The portal vein/mesenteric vein was removed form male rabbit (NZ White, about 2 kg) under anesthesia and vertical sample of width 2-3 mm and length 3-4 mm was made. Made samples were hung in magnus tube (volume: 5 mL) filled with Krebs-Henseleit solution (37° C.) using a hook. They were loaded with 0.5 g resting tension stabilized for about 60 minutes, then constrictive movement was recorded on a recorder (linear recorder WR3320: Graphtec Corp.) through strain compression amplifier (AP-601G, Nihon Kohden) from Force displacement transducer (FD pickup TB-611T).

[6] = test system: rat removed basilar artery; assay: Vasoconstrictor action of rat removed basilar artery; conditions: 3 μM (FIG. 3, FIG. 4)
Method: Basilar arteries were removed from male rat (CD(SD)IGS, male, Charles River Japan, Inc., 8 weeks old-10 weeks old, 350-450 g) and quickly immersed in cooled Krebs-Henseleit solution. Removed basilar arteries were divided by about 3 mm width with ophthalmic scissors and made as ringed samples. Samples hung in micro tissue organ bath (MTOB-1: Preimetech Corp.) filled with Krebs-Henseleit solution (37° C.). They were loaded with about 0.2 g resting tension stabilized for about 60 minutes, and then constrictive movement was recorded on a recorder (linearcoda WR3320: Graphtec Corp.) through strain compression amplifier (AP-601G, Nihon Kohden) from micro tissue organ bath.

T2 sequence (P21453 whole entry): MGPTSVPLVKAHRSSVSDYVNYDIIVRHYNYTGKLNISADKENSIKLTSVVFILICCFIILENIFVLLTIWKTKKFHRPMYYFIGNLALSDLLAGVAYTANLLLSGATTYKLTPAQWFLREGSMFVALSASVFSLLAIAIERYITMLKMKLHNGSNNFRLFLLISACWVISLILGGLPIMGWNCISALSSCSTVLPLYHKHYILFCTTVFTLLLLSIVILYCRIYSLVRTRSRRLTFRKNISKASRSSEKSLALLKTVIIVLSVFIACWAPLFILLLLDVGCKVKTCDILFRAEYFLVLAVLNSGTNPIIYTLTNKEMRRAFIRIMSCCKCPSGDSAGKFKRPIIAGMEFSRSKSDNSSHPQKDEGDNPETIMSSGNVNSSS
T3 sequence (O95136 whole entry): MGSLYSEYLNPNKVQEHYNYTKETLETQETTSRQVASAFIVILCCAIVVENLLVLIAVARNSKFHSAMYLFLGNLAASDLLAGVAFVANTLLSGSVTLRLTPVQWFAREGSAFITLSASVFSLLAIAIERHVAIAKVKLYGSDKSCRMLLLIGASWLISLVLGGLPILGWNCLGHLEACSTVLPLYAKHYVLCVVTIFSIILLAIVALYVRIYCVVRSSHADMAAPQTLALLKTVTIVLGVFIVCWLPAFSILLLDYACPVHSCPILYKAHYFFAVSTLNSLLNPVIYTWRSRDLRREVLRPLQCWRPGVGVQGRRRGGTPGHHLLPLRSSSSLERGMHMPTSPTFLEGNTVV
T1 sequence (Q99500 whole entry): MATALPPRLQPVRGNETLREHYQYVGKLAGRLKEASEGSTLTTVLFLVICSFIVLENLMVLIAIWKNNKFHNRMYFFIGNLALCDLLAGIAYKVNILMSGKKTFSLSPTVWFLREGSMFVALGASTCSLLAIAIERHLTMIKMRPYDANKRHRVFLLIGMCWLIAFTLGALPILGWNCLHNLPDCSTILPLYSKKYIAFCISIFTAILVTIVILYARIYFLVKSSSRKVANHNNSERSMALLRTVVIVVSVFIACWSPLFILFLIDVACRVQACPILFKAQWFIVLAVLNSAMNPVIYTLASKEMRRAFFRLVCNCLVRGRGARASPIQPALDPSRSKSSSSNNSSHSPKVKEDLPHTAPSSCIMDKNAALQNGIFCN

Row | SMILES | constriction of canine renal arteries [1] | constriction of rat thoracic aorta [2] | constriction of canine basilar arteries [3] | IC50 (human EDG-3) | inhibitory effect on vasoconstrictive action of canine renal arteries by S1P [1] | IC50 (human EDG-1) | IC50 (human EDG-5) | inhibitory effect on rabbit vasoconstrictive action by S1P [4] | flow rate of nutrient solution (corresponding the blood flow rate of coronary artery) (removed rat heart) | contractive force of heart muscle (removed rat heart) | inhibitory effect on vasoconstrictive action of canine basilar artery by S1P [3] | other results
1 | CCCCCCCCCCCCC/C=C/[C@@H](O)[C@@H](N)COP(=O)(O)O [Example S1P, (2S,3R,4E)-2-amino-3-hydroxyoctadeca-4-enyl-1-phosphate] | constricted | constricted | constricted |  |  |  |  |  |  |  |  | effect of S1P on rat blood pressure (SD rat): increased; effect of S1P on contractive force of heart muscle (removed rat heart): dose-dependently decreased
2 | Cc1nn(C)c2nc(NNC(=O)Nc3c(Cl)cncc3Cl)cc(C(C)C)c12 [compound (1), N-(1H-1,3-dimethyl-4-isopropylpyrazolo[3,4-b]pyridin-6-yl)amino-N′-(3,5-dichloropyridin-4-yl)urea] |  |  |  | > 10 µM | inhibited; also recorded: suppression | > 10 µM | 0.5 µM | showed inhibitory effect | increased | increased | inhibited; also recorded: suppression | inhibitory effect on vasoconstrictive action of rabbit thoracic aorta by S1P (rabbit thoracic aorta): showed inhibitory effect; inhibitory effect on vasoconstrictive action of canine thoracic aorta by S1P (canine thoracic aorta): showed inhibitory effect; inhibition of vasoconstrictive action of rat thoracic aorta by S1P ([2]; 10 μM test compound added an hour after S1P (10 μM)): specifically inhibited; also recorded: suppression; inhibition of vasoconstrictive action of rat thoracic aorta by phenylephrine ([2]; 10 μM test compound, phenylephrine 10 μM): did not inhibit; also recorded: not showing the suppression
3 | O=C(Nc1cccc(C(F)(F)F)c1)N1CCC(O)(c2ccc(Br)cc2)CC1 [compound (2), 4-(4-bromophenyl)-4-hydroxy-N-(3-(trifluoromethyl)phenyl)-1-piperidinecarboxamide] |  |  |  | > 10 µM | inhibited; also recorded: suppression | > 10 µM | 0.4 µM | showed inhibitory effect | increased | increased | inhibited; also recorded: suppression | inhibitory effect on contraction of vein by S1P [5]: inhibitory effect; also recorded: suppression; inhibitory effect on vasoconstrictor action of rat removed basilar artery by S1P [6]: inhibitory effect; also recorded: suppression
4 | CNC[C@H](O)c1cccc(O)c1 [phenylephrine] |  | constricted |  |  |  |  |  |  |  |  |  | 
5 | NCCc1c[nH]c2ccc(O)cc12 [serotonin] | constricted |  | constricted |  |  |  |  |  |  |  |  | 
